Experimental findings from patent US7168937B2, “Method for the enzymatic resolution of the racemates of aminomethyl-aryl-cyclohexanol derivatives” (Gruenenthal GmbH, priority 2000, dated 2007) are described below.

Read-outs that look alike come from different tables or passages of the source.

One may read the logD as lipophilicity at a set pH, counting ionised and neutral species. Usually logP stands for the decadic logarithm of the partition coefficient of the neutral form, usually between octanol and water. Broadly, the pKa is the pH at which an ionisable group is half protonated.

Type in all cases: physicochemical
Data set [1] can be described thus: logP and logD values water/octanol. The following applies: for logD: pH 7.4, water/octanol; for logP: water/octanol.
Data set [2] is described as follows: logP and logD values water/cyclohexane. The following applies: for ΔlogP value at pH 7.4: difference of logP water/octanol and water/cyclohexane; for ΔlogD value at pH 7.4: pH 7.4, difference of logD water/octanol and water/cyclohexane.
Data set [3] in a line: pKa values of the compounds 1 and 2.
Where [4] appears, read: pH 7.4, water/cyclohexane, read-out: logD value at pH 7.4 water/cyclohexane.
Setting [5] is: water/cyclohexane, read-out: logP value: water/cyclohexane.

In data set [1], `CCCC(=O)O[C@H]1CC[C@](O)(c2cccc(OC)c2)[C@@H](CN(C)C)C1` (racemic) [Compound 1, (1SR,3RS,4RS)-butyric acid 3-dimethylaminomethyl-4-hydroxy-4-(3-methoxy-phenyl)-cyclohexyl ester] returned a pH-dependent lipophilicity (logD) of 1.48 and a lipophilicity (logP) of 2.9. For the same compound, in data set [2], the “ΔlogP value at pH 7.4” value stood at 0.538 and the “ΔlogD value at pH 7.4” value was 0.538. In data set [2] (setting [4]), the logD hydrocarbon water was 0.946. The logD hydrocarbon water in data set [2] (setting [5]) was found to be 2.36. In data set [3], this compound showed a pKa of 8.8.
In data set [1], `COc1cccc([C@@]2(O)CC[C@H](O)C[C@@H]2CN(C)C)c1` (racemic) [Compound 2, (1RS,2RS,4SR)-2-dimethylaminomethyl-1-(3-methoxy-phenyl)-cyclohexane-1,4-diol] displayed a logD of -0.564 and a lipophilicity (logP) of 1.1. In addition, in data set [2], the “ΔlogP value at pH 7.4” value turned out to be 1.733 and the “ΔlogD value at pH 7.4” value is 1.733. In addition, in data set [2] (setting [4]), the logD hydrocarbon water is -2.3. Further, in data set [2] (setting [5]), the logD hydrocarbon water was -0.632. The compound also came in with a pKa in data set [3] of 9.05.
